# Measured values published in article PMC6143625, “A high throughput screen for next-generation leads targeting malaria parasite transmission” (Nature Communications, 2018).
# Tests used:
# [1] = tested on: P. falciparum stage V male gametocytes (male gamete formation); experiment: P. falciparum dual gamete formation assay (Pf DGFA), male readout (exflagellation), 48 h carry-over format; type: cell-based, Plasmodium falciparum NF54; settings: primary screen, 2 uM, 48 h incubation, single replicate
# Experimental: (§1) P. falciparum NF54 strain (originally isolated from an imported malaria case in the Netherlands in the 1980s; BEI Resources, cat. no. MRA-1000) asexual and sexual stages culture was performed as previously described. Gametocyte cultures were initiated at 1% asexual ring stage parasitaemia and 4% haematocrit in 40 ml final volume. To induce gametocyte production, complete culture medium (CM) (RPMI 1640 supplemented with 25 mM HEPES, 50 µg ml^−1 hypoxanthine, 2 g l^−1 NaHCO3 and 10% pooled human male type A+ serum) was replaced daily for 14 days without fresh erythrocyte addition. Human serum was obtained from Interstate Blood Bank, A^+ serotype; no aspirin 2 h before drawing and no antimalarials 2 weeks before drawing. On day 14 after culture induction, gametocyte production was assessed by thin smear and Giemsa staining, and exflagellation accurately counted in a haemocytometer. Gametocyte cultures with >0.2% exflagellation (compared to total erythrocyte cell number) were deemed acceptable for use in the Pf DGFA. Note, all human biological samples were sourced ethically and their research use was in accord with the terms of the informed consents under an IRB/EC approved protocol.
# (§2) In screening mode, the assay was performed as described in Delves et al.[35] with a mean Z′ factor of 0.56 ± 0.14 (SD) (male) and 0.71 ± 0.17 (SD) (female). Pooled mature gametocyte cultures with the capacity to yield >0.2% exflagellation (of total cells) were diluted in CM to 14 million cells per ml and so that 700,000 cells were dispensed in 50 µl into each well of the warmed 384-well screening plates. Parasites were incubated in the plates with compounds for 48 h in a humidified chamber under 92%N2/5% CO2/3% O2 gas mix before gamete formation was triggered by addition of 10 µl per well ookinete medium (RPMI 1640 supplemented with 25 mM HEPES, 50 µg ml^−1 hypoxanthine, 2 g l^−1 NaHCO3, 100 µM xanthurenic acid) containing 0.5 µg ml^−1 anti-Pfs25 clone 4B7 (BEI Resources, cat. no. MRA-315) conjugated to the fluorophore Cy3 (GE Healthcare), and also by cooling the plate at 4 °C for 4 min and then a further 5 min at 28 °C. Exflagellation was recorded immediately by brightfield microscopy using a Nikon Ti-E widefield microscope at ×4 objective, ×1.5 zoom, recording a 10-frame video time-lapse over 2 s for each well. Afterwards, plates were incubated in the dark at 28 °C for a further 24 h to allow female gametes to maximally express Pfs25 on their surface. Female gamete formation was recorded by single-image fluorescence microscopy using the same microscope and magnification as above. Exflagellation and female gamete formation were quantified by specific algorithms designed with the open-source ICY Image Analysis software.
# (§3) Assay performance statistics, such as signal to background ratio, Z′ and robust 3×SD activity cut-off were calculated using templates in ActivityBase XE (IDBS, Guilford, Surrey, UK). Hit population analysis and visualisation were conducted using Spotfire DecisionSite (Spotfire, Inc., Somerville, Massachusetts). The pIC50 (−log IC50) values were obtained using the ActivityBase XE nonlinear regression function in the full curve analysis bundle. In screening mode, the Pf DGFA achieved a mean Z′ factor of 0.56 ± 0.14 (SD) (male) and 0.71 ± 0.17 (SD) (female).
# [2] = tested on: P. falciparum stage V female gametocytes (female gamete formation); experiment: P. falciparum dual gamete formation assay (Pf DGFA), female readout (Pfs25 expression), 48 h carry-over format; type: cell-based, Plasmodium falciparum NF54; settings: primary screen, 2 uM, 48 h incubation, single replicate
# Experimental: as §1
# as §2, with “Parasites were incubated in the plates with compounds for 48 h in a humidified chamber under” left out
# as §3
Structure (SMILES),%Inhibition Male @2uM [1],%Inhibition Female @2uM [2]
Cc1cc2c(cc1NC(N)=O)OCO2 [DDD01037848],<30%,32.47%
O=C(NCc1ccco1)c1[nH]nc2c1CS(=O)(=O)CC2 [DDD01037866],48.15%,<30%
CCn1nc(C)c2nc(C)nc(NCCc3ccccc3)c21 [DDD01038123],<30%,30.36%
CCn1cc(CN2CCN(C(=O)c3cc(C)c(C)s3)CC2)c(C)n1 [DDD01038373],<30%,36.25%
CCN1CCN(C(=O)C2CC(=O)N(c3cnn(C(C)C)c3)C2)CC1 (stereo not drawn) [DDD01038633],42.61%,<30%
Cc1ccc2c(c1)c(C)cc(=O)n2CCCN [DDD01038649],<30%,33.62%
COc1ccc(NC(=O)c2cnc(C3CCN(C)CC3)nc2C)cc1 [DDD01056828],33.07%,<30%
CN(C)C(=O)CN1CCC(c2c(C(N)=O)sc3ncccc23)C1 (stereo not drawn) [DDD01056829],34.06%,<30%
CN1CC2(CCC(C(=O)N3CCOCC3)CC2)Oc2ccccc2C1=O (stereo not drawn) [DDD01056893],30.45%,<30%
O=C(NC1CC1)[C@H]1CN(Cc2ccccc2)C[C@@H]1C(=O)c1ccccc1 [DDD01056910],31.76%,<30%
CS(=O)(=O)N1CCCCC1c1ccc(Nc2cnccn2)nc1 (stereo not drawn) [DDD01057097],34.23%,<30%
CN1CCOC(C)(C(=O)Nc2nccs2)C1 (stereo not drawn) [DDD01057393],32.46%,<30%
O=C(Cn1cnc2cc3c(cc21)OCCCO3)NCCc1ccccc1 [DDD01057871],<30%,36.66%
COc1cccc(CC(=O)N2CCCC2c2nc(=O)c(C)c(C)[nH]2)c1 (stereo not drawn) [DDD01059601],<30%,33.02%
CNc1cncc(C2CCCN2c2cc(C)ncn2)n1 (stereo not drawn) [DDD01059901],44.44%,<30%
CC(=O)N1CCCC(c2ccccn2)C1 (stereo not drawn) [DDD01059909],30.93%,<30%
CN(C)C(=O)CN1CCC(c2cccc(Cc3ccc(F)cc3)n2)CC1 [DDD01060228],31.41%,<30%
CC(C)CC(=O)N1CCN(Cc2cc(-c3ccncc3)nn2C)CC1 [DDD01060230],<30%,78.93%
OC1(Cn2ccc3ncccc32)CCN(Cc2cc(F)cc(F)c2)CC1 [DDD01060275],30.37%,<30%
Cc1cncc(C(=O)N[C@@H]2CC[C@@H](N3CCOCC3)[C@@H]2O)c1 [DDD01060350],<30%,35.23%

Structure (SMILES),%Inhibition Male @2uM [1],%Inhibition Female @2uM [2]
CC(=O)N1CCN([C@@H]2CC[C@@H](NC(=O)c3cc(C)cs3)[C@H]2O)CC1 [DDD01060352],<30%,32.18%
CC(C)(N)C(=O)N1CCCC1c1cncc(Oc2ccccc2)n1 (stereo not drawn) [DDD01060400],<30%,49.04%
Cc1nc2ccc(C(=O)N3CCn4c(nnc4C4CC4)C3)cc2nc1C [DDD01060815],<30%,31.88%
O=C(C1CCCCC1)N1CCC(c2[nH]nc3nccnc23)CC1 [DDD01060967],<30%,38.46%
O=C(c1cn[nH]n1)N1CCCC1C1CCCCC1 (stereo not drawn) [DDD01061770],<30%,30.76%
Cc1noc(C)c1CNC1CCN(c2ccccc2OC(F)F)C1 (stereo not drawn) [DDD01061833],<30%,39.11%
CN(C)c1ccc(CNC(=O)Nc2ccc(S(=O)(=O)C(F)F)cc2)cc1 [DDD01062359],<30%,41.45%
Cc1ccc(OCCCC(=O)Nc2nonc2C)cc1C [DDD01063175],<30%,30.83%
Cc1noc(C(C)Nc2ccc3oc(C)nc3c2)n1 (stereo not drawn) [DDD01064591],<30%,37.30%
CC1CN(C(=O)c2cnn(-c3ccccn3)c2C(C)C)CC(C)(C)O1 (stereo not drawn) [DDD01064602],<30%,40.46%
CCOc1nnc(CN2CCN(CCOC)C(C)C2)s1 (stereo not drawn) [DDD01065018],30.92%,<30%
c1cc(NCc2ccsc2)cc(-c2nnc[nH]2)c1 [DDD01065418],31.81%,<30%
Cc1nc(C)c(C(=O)N2CCc3c(Cl)cccc32)o1 [DDD01065842],32.65%,<30%
Cc1[nH]c(C2(N)CCCCC2)nc(=O)c1C [DDD01066687],<30%,32.19%
Cc1ccc(N2CCCC(N(C)Cc3cc(C)on3)C2)nn1 (stereo not drawn) [DDD01069945],<30%,39.02%
COc1cc(CNC(C)c2cccc(Cl)c2)cc(OC)c1OC (stereo not drawn) [DDD01069994],35.70%,<30%
COCc1noc(C2(c3cccc(Cl)c3)CCOCC2)n1 [DDD01070409],71.92%,<30%
O=C(CNc1cc2c(cc1Cl)OCCO2)NCC(F)(F)F [DDD01070591],<30%,39.90%
CCS(=O)(=O)NC1CCCN(c2ccc(F)cc2C)C1=O (stereo not drawn) [DDD01074148],<30%,33.10%
